Experimental data taken from patent publication US20080287396A1, “Phosphonated Fluoroquinolones, Antibacterial Analogs Thereof, and Methods for the Prevention and Treatment of Bone and Joint Infections” (TARGANTA THERAPEUTICA INC., priority 2005, published 2008).

Assays:
[1] = Bone powder binding, fluorometric detection; conditions: for Binding to bone (%) Fluorescence: 1 mg/ml compound, bone meal powder 10 mg/ml in PBS, 37° C., 1 h; for binding to osseous matter, in words: bisphosphonates bearing three hydroxy groups
Protocol: The ability of the example molecules to bind to bone powder was established in two parallel fashions, using either LC/MS or fluorometric detection. For LC/MS detection, a stock solution (5 mM) of the compound to be tested was added to 0.1M Tris-HCl buffer pH 7, 0.15M NaCl to reach a final concentration of 100 μM. Triplicate samples (1 mL) of the compound solutions were intensively shaken for 10 min with or without 25 mg of fresh or 20 mg of vacuum dried ground rat tibia bone. The samples were then centrifuged for 15 min at 10 000 g. The presence of unbound compound was measured by injection of 30 μL of each of the supernatants into an Agilent 1100™ LC/UV system. For fluorometric detection, an individual compound was dissolved in PBS or water (compound 52) and resuspended at a concentration of 1 mg/ml in a slurry of bone meal powder (Now Foods, Bloomingdale, Ill., USA) in PBS at 10 mg/ml. The suspension of drug/prodrug in bone meal powder was incubated at 37° C. for 1 h to allow for binding, and centrifuged at 13 000 rpm for 2 min, before recovering the supernatant. The bone meal powder pellet was then washed three times with 1 ml of PBS. All supernatants were saved and assessed for fluoroquinolone content by fluorescence measurements at excitation/emission wavelengths of 280/465 nm. The amount of fluoroquinolone was determined from standard curves generated for each experiment. Amount of drug/prodrug bound to bone powder was deduced from the difference between the input amount (typically 1 mg) and the amount recovered in the supernatants after binding. In all binding experiments, >99% of input drug was recovered in the supernatant for the parent drugs.

S. aureus ATCC 13709 = test: Prophylactic model of bone infection in rats; type: in vivo, rat; conditions: for prophylactic effect in rat model of bone infection, in words: Table 4 and FIGS. 6-8, doses as in Table 4
Protocol: To determine the activity in vivo of bisphosphonated prodrugs of fluoroquinolones, compounds 52 and 107, derivatives of parent compounds moxifloxacin 3 (for 52), and compounds 39, 44, 49, 54, 121, 129, 141, 145, 149, derivatives of parent compound gatifloxacin 15, were used in a prophylactic model for infection. Specifically, S. aureus ATCC 13709 cells were grown overnight at 37° C. in brain heart infusion broth (BHIB). Cells were subcultured into fresh BHIB and incubated for 4 to 5 h at 37° C. The cells were washed twice with phosphate-buffered saline (PBS) and resuspended in BHIB supplemented with 10% (vol./vol.) fetal bovine serum at a density of approximately 10^10 colony forming units (CFU)/ml (based upon turbidimetry). The suspension was aliquoted and a portion was used to check the CFU count. The culture was stored frozen (−80° C.) and was used without subculture. For use as an inoculum the culture was thawed, diluted in PBS and kept in an ice bath until it was used.
Animals were infected as described by O'Reilly et al. (Antimicrobial Agents and Chemotherapy (1992), 36(12): 2693-97) to generate the bone infection. Female CD rats (age, 57 to 70 days; n=5/group; Charles River, St-Constant, Canada) were anaesthetized by isofluorane before and during the surgery. Following complete induction of anesthesia, the rat was placed ventral side up and hair was shaved from the surgical site. The skin over the leg was cleaned and disinfected (proviodine-ethanol 70%). A longitudinal incision below the knee joint was made in the sagital plane. The incision was made over the bone below the “knee joint” (tibia head or condyle) but not completely extending to the ankle. A high speed drill fitted with a 2 mm bulb bit was used to drill a hole into the medullar cavity of the tibia. Rats were injected intra-tibially with 0.05 ml 5% sodium morrhuate (sclerosing agent) and then with 0.05 ml of S. aureus suspension (ca. 5×10^5 CFU/rat). The hole was sealed by applying a small amount of dry dental cement which immediately absorbs fluids and adheres to the site. The wound was closed using 3 metal skin clips. Moxifloxacin 3 (as a positive control) was injected once at 10 mg/kg intravenously 1 h postinfection in saline, while the fluoroquinolone prodrugs (prepared in 0.9% saline) were injected as a single intravenous bolus dose at different time points prior to the infection. For comparison, the parent drug (moxifloxacin 3 or gatifloxacin 15) was also injected intravenously once at a molar equivalent dose at the same time point prior the infection.
Infected rats were sacrificed by CO2 asphyxiation 24 h postinfection to monitor the bacterial CFU count. Infected tibiae were removed, dissected free of soft tissue, and weighed. The bones were ground using a metal ball mill, resuspended in 5 ml 0.9% NaCl, serially diluted and processed for quantitative cultures. For compounds 39, 44, 49, 54, 141, 145, 149, 1 ml of the 0.9% NaCl solution was added to 50 mg of charcoal before serial dilutions. Treatment efficacies were measured in terms of Log viable bacteria (Log CFU per gram of bone). The results obtained for each group of rats were evaluated by calculating the mean Log CFU and standard deviation. The limit of detection is 2 Log CFU/g of bone. Statistical comparisons of viable bacterial counts for the different treated and untreated groups were performed with Dunnett's multiple-comparison test. Differences were considered significant when the P value was <0.05 when comparing treated infected animals to the untreated infected ones.

| SMILES | Binding to bone (%) Fluorescence [1] [%] | prophylactic effect in rat model of bone infection, in words (S. aureus ATCC 13709) | also measured |
| --- | --- | --- | --- |
| O=C(O)c1cn(C2CC2)c2cc(N3CCNCC3)c(F)cc2c1=O [Compound 6, Ciprofloxacin, reference compound] | 0 | – | – |
| COc1c(N2C[C@@H]3CCCN[C@@H]3C2)c(F)cc2c(=O)c(C(=O)OCC(=O)Nc3ccc(CC(P(=O)(O)O)P(=O)(O)O)cc3)cn(C3CC3)c12 [Compound 62, (4-(2,2-Bisphosphonoethyl)phenylcarbamoyl)methyl 1-cyclopropyl-6-fluoro-1,4-dihydro-7-((4aS,7aS)-octahydropyrrolo[3,4-b]pyridin-6-yl)-8-methoxy-4-oxoquinoline-3-carboxylate] | 97.2 | – | – |
| COc1c(N2C[C@@H]3CCCN[C@@H]3C2)c(F)cc2c(=O)c(C(=O)OCC(=O)N(C)C(P(=O)(O)O)P(=O)(O)O)cn(C3CC3)c12 [Compound 80, (N-Methyl-1,1-Bisphosphonomethylcarbamoyl)methyl 1-cyclopropyl-6-fluoro-1,4-dihydro-7-((4aS,7aS)-octahydropyrrolo[3,4-b]pyridin-6-yl)-8-methoxy-4-oxoquinoline-3-carboxylate] | 97.3 | – | – |
| COc1c(N2C[C@@H]3CCCN[C@@H]3C2)c(F)cc2c(=O)c(C(=O)SCCCC(P(=O)(O)O)P(=O)(O)O)cn(C3CC3)c12 [Compound 94, S-4,4-bisphosphonobutyl 7-((4aS,7aS)-octahydropyrrolo[3,4-b]pyridin-6-yl)-1-cyclopropyl-6-fluoro-1,4-dihydro-8-methoxy-4-oxoquinoline-3-carbothioate] | 99.9 | – | – |
| COc1c(N2CCNC(C)C2)c(F)cc2c(=O)c(C(=O)SCCCC(P(=O)(O)O)P(=O)(O)O)cn(C3CC3)c12 (centres unmarked) [Compound 96, S-4,4-bisphosphonobutyl 7-(3-methylpiperazin-1-yl)-1-cyclopropyl-6-fluoro-1,4-dihydro-8-methoxy-4-oxoquinoline-3-carbothioate] | 98.7 | – | – |
| COc1c(N2C[C@@H]3CCCN[C@@H]3C2)c(F)cc2c(=O)c(C(=O)SCC(=O)NC(P(=O)(O)O)P(=O)(O)O)cn(C3CC3)c12 [Compound 99, S-(1,1-Bisphosphonomethylcarbamoyl)methyl 1-cyclopropyl-6-fluoro-1,4-dihydro-7-((4aS,7aS)-octahydropyrrolo[3,4-b]pyridin-6-yl)-8-methoxy-4-oxoquinoline-3-carbothioate] | 99.0 | – | – |
| COc1c(N2C[C@@H]3CCCN(C(=O)CC(P(=O)(O)O)P(=O)(O)O)[C@@H]3C2)c(F)cc2c(=O)c(C(=O)O)cn(C3CC3)c12 [Compound 107, 7-((4aS,7aS)-1-(3,3-bisphosphonopropionyl)-octahydropyrrolo[3,4-b]pyridin-6-yl)-1-cyclopropyl-6-fluoro-1,4-dihydro-8-methoxy-4-oxoquinoline-3-carboxylic acid] | 98.2 | lack of effect | Measured bacterial titer (Log CFU/g of bone) Test compound (S. aureus ATCC 13709; 19.4 mg/kg IV, 1 day prior to infection): 5.40 ± 0.93 Log CFU/g of bone |
| COc1c(N2CCN(C(=O)CC(P(=O)(O)O)P(=O)(O)O)C(C)C2)c(F)cc2c(=O)c(C(=O)O)cn(C3CC3)c12 (centres unmarked) [Compound 112, 7-(4-(3,3-bisphosphonopropionyl)-3-methylpiperazin-1-yl)-1-cyclopropyl-6-fluoro-1,4-dihydro-8-methoxy-4-oxoquinoline-3-carboxylic acid] | 82.5 | – | – |
| COc1c(N2C[C@@H]3CCCN(C(=O)OCC(=O)Nc4ccc(CC(P(=O)(O)O)P(=O)(O)O)cc4)[C@@H]3C2)c(F)cc2c(=O)c(C(=O)O)cn(C3CC3)c12 [Compound 117, 7-((4aS,7aS)-1-(((4-(2,2-bisphosphonoethyl)phenylcarbamoyl)methoxy)carbonyl)-octahydropyrrolo[3,4-b]pyridin-6-yl)-1-cyclopropyl-6-fluoro-1,4-dihydro-8-methoxy-4-oxoquinoline-3-carboxylic acid] | 99.4 | – | – |
| COc1c(N2CCN(CCC(=O)c3ccc(OCCCC(P(=O)(O)O)P(=O)(O)O)cc3)C(C)C2)c(F)cc2c(=O)c(C(=O)O)cn(C3CC3)c12 (centres unmarked) [Compound 121, 1-cyclopropyl-6-fluoro-1,4-dihydro-7-(4-(3-(4-(4,4-bisphosphonobutoxy)phenyl)-3-oxopropyl)-3-methylpiperazin-1-yl)-8-methoxy-4-oxoquinoline-3-carboxylic acid] | 94.7 | efficient prophylactic effect | Measured bacterial titer (Log CFU/g of bone) Test compound (S. aureus ATCC 13709; 20.8 mg/kg IV, 1 day prior to infection): 3.01 ± 0.47 Log CFU/g of bone |
| COc1c(N2CCN(Cc3oc(=O)oc3-c3ccc(P(=O)(O)CP(=O)(O)O)cc3)C(C)C2)c(F)cc2c(=O)c(C(=O)O)cn(C3CC3)c12 (centres unmarked) [Compound 129, 1-Cyclopropyl-6-fluoro-1,4-dihydro-8-methoxy-7-(3-methyl-4-((2-oxo-5-(4-(phosphonomethylphosphinoyl)phenyl)-1,3-dioxol-4-yl)methyl)piperazin-1-yl)-4-oxoquinoline-3-carboxylic acid] | 63.7 | unable to produce a positive result in vivo | binding to osseous matter, in words [1]: less effectively bound; Measured bacterial titer (Log CFU/g of bone) Test compound (S. aureus ATCC 13709; 10.75 mg/kg IV, 2 days prior to infection): 6.14 ± 1.05 Log CFU/g of bone |
| COc1c(N2CCNC(C)C2)c(F)cc2c(=O)c(C(=O)OCC(=O)NCCCC[C@@H](NC(=O)COC(=O)c3cn(C4CC4)c4c(OC)c(N5CCNC(C)C5)c(F)cc4c3=O)C(=O)NC(P(=O)(O)O)P(=O)(O)O)cn(C3CC3)c12 (some centres unmarked) [Compound 134] | 92.8 | – | – |
| COc1c(N2CCN(C(=O)CC(C)(C)c3cc(P(=O)(O)CP(=O)(O)O)ccc3OC(=O)C(C)C)C(C)C2)c(F)cc2c(=O)c(C(=O)O)cn(C3CC3)c12 (centres unmarked) [Compound 145, 7-(4-(3-(2-(2,2-dimethylacetoxy)-5-((phosphonomethyl)phosphonoyl)phenyl)-3-methylbutanoyl)-3-methylpiperazin-1-yl)-1-cyclopropyl-6-fluoro-1,4-dihydro-8-methoxy-4-oxoquinoline-3-carboxylic acid] | 76.0 | unable to produce a positive result in vivo | binding to osseous matter, in words [1]: less effectively bound; Measured bacterial titer (Log CFU/g of bone) Test compound (S. aureus ATCC 13709; 47.2 mg/kg IV, 2 days prior to infection): 4.69 ± 0.78 Log CFU/g of bone |
